Entries after “also recorded” stand apart in the source; their conditions may differ.
Key:
mice lacking Sirt3 = details: IP 2 mg/kg, 30 minutes before IR; cited from earlier work
MCF7-HTR cells [1] = test: Ki-67 staining, MCF7-HTR cells; type: cell-based, human; details: 5 μM GC4419 and/or 1 μM 4-hydroxy-Tam for 5 days
Source text: (§1) With respect to FIG. 16a, the data from FIG. 7i, where MCF7-HTR cells were stained for Ki-67, as well as DAPI, were counted with ImageJ and quantified for average Ki-67 intensity as shown in the bar graph. With respect to FIGS. 16b and 16c, T47D and T47D-HTR cells were stained for Ki-67 as well as DAPI, and particles in the nucleus were counted with ImageJ and quantified for average Ki-67 intensity as shown in the bar graph. In FIGS. 16d and 16e, MCF7-HTR cells, and in FIGS. 16f and 16g, T47D-HTR cells, were treated with 5 μM GC4419 and/or 1 μM 4-hydroxy-Tam for 5 days, and then stained for Ki-67 as well as DAPI. Quantifications of average Ki-67 intensity are shown in the bar graphs. All experiments were done in triplicate. Error bars represent ±1 SEM. ***p<0.001. Representative images are shown.
(§2) Cells seeded on glass coverslips were fixed in 4% paraformaldehyde and then blocked with 1% BSA and 10% normal goat serum in 1×PBS. Cells were incubated with anti-Ki-67 (c-bioscience) antibody in 1×PBS followed by incubation with goat anti-rabbit IgG conjugated with Alexa Fluor 647 (Invitrogen) in 1×PBS with 5% goat serum. Cells were washed in 1×PBS, mounted, and imaged with a fluorescence microscope. Fluorescence images were captured using a laser scanning confocal microscope (Nikon A1R). The paired images in all the figures were collected at the same gain and offset settings. […]

[2] = system: Sirt3^−/−-MT-SIRT3^WT tumor cells; test: Mammary allograft tumor growth (bioluminescence), Sirt3^−/−-MT-SIRT3^WT; type: in vivo; details: Sirt3^−/−-MT-SIRT3^WT allografts, nude mice, IP
Protocol: (§3) Mice were subsequently injected with luciferin potassium (120 mg/kg) every week and signal intensity will be quantified. Error bars represent one SD from the mean.
(§4) These cell lines were subsequently infected with and selected to express either a SIRT3 wild-type (Sirt3^−/−-MT-SIRT3^WT) or deacetylation null (Sirt3^−/−-MT-SIRT3^DN) gene and a lenti-luciferase to assess tumor growth by bioluminescence. Allograft tumor mice were split into four groups: (1) control, untreated Sirt3^−/−-MT-SIRT3^DN; (2) GC4419 treated Sirt3^−/−-MT-SIRT3^DN; (3) control, untreated Sirt3^−/−-MT-SIRT3^WT; and (4) GC4419 treated Sirt3^−/−-MT-SIRT3^WT.

T47D-HTR cells = test: Ki-67 staining, T47D-HTR cells; type: cell-based, human; details: 5 μM GC4419 and/or 1 μM 4-hydroxy-Tam for 5 days
Source text: as §1, §2

MCF7-HTR cells [3] = test: Clonogenic cell survival, hydroxy-Tam-resistant MCF7-HTR cells; type: cell-based, human; details: 5 μM GC4419 for 5 days
Protocol: Clonogenic cell survival assay. For the clonogenic survival analysis, exponentially growing cells were replated using appropriate dilutions, and clonogenic survival was evaluated after 14 days in regular growth medium. Cells were stained with crystal violet, and colonies of >50 cells were counted and utilized to calculate clonogenic survival^46.
To test parameters indicative of oxidative stress, a clonogenic assay with hydroxy-Tam and antioxidant treatments was performed. Cells were plated at a density of 50,000 cells per 60-mm dish and treated with 1 μM hydroxy-Tam (Sigma) and 5 μM GC4419 (Galera Therapeutics) for a total of 120 h. This protocol was repeated with a fresh medium change every 24 h for 5 days. On day 6, the cells were trypsinized, counted, and replated in control medium using appropriate dilutions, and clonogenic survival was evaluated.

[4] = system: Sirt3^−/−-MT-SIRT3^DN tumor cells; test: Mammary allograft tumor growth (bioluminescence), Sirt3^−/−-MT-SIRT3^DN; type: in vivo; details: Sirt3^−/−-MT-SIRT3^DN allografts, nude mice, IP every other day for five weeks
Protocol: as §3, §4

[Cl][Mn][Cl].c1cc2nc(c1)CN[C@H]1CCCC[C@@H]1NCCN[C@H]1CCCC[C@@H]1NC2 [GC4419]
liver damage (mice lacking Sirt3): attenuated liver damage | Ki-67 staining (MCF7-HTR cells [1]): exhibited decreased Ki-67 IHC staining | allograft tumor growth [2]: no change in tumor growth was observed | Ki-67 staining (T47D-HTR cells): exhibited decreased Ki-67 IHC staining; also recorded: decreased Ki-67 levels | sensitivity to hydroxy-Tam (clonogenic cell survival) (MCF7-HTR cells [3]): became sensitive to hydroxy-Tam | allograft tumor growth [4]: significant decrease in tumor growth; also recorded: tumor growth is inhibited

Reference: patent publication US20230149358A1, “COMBINATION CANCER THERAPY WITH PENTAAZA MACROCYCLIC RING COMPLEX AND HORMONE THERAPY AGENT” (Galera Labs, LLC, priority 2020, published 2023)
